Assays:
[1] = biological target: T1, Fibroblast growth factor receptor 4 (Homo sapiens, UniProt P22455); assay: Inhibition of FGFR4 (unknown origin) at 100 nM incubated for 10 mins followed by substrate addition measured after 60 mins by ADP-Glo luminescence assay relative to control; conditions: time 70.0 min
Target sequence in this assay (P22455 22-802 limits assumed): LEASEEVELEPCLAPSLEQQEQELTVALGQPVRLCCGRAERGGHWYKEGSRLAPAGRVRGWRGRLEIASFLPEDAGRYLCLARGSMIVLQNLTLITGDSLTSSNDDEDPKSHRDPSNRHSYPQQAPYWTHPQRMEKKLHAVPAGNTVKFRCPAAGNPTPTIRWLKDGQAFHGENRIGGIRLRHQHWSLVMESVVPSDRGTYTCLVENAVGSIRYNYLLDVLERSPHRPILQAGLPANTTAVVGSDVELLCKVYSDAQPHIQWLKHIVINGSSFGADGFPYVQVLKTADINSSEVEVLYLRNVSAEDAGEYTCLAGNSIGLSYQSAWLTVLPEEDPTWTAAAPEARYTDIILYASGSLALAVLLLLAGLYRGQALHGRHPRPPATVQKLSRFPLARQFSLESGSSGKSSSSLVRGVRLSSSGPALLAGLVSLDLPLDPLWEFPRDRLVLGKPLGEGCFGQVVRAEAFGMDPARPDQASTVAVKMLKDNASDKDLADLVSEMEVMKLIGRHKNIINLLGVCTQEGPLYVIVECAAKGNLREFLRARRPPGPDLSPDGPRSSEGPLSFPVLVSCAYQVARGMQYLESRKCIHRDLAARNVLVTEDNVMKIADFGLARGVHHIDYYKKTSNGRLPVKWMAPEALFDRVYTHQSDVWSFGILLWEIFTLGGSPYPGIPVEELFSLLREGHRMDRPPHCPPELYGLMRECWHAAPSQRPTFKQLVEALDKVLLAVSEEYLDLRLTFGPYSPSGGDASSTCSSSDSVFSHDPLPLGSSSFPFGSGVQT

Huh-7 = assay: Antiproliferative activity against human Huh-7 cells incubated for 72 hrs by Cell counting kit 8 method; assay type: functional, cell-based; conditions: Huh-7, 72 h
Hep 3B2 = assay: Antiproliferative activity against human Hep3B cells incubated for 72 hrs by Cell counting kit 8 method; assay type: functional, cell-based
[2] = biological target: T1, Fibroblast growth factor receptor 4; assay: Inhibition of FGFR4 (unknown origin) incubated for 10 mins followed by substrate addition measured after 60 mins by ADP-Glo luminescence assay
Target sequence in this assay (P22455 whole entry): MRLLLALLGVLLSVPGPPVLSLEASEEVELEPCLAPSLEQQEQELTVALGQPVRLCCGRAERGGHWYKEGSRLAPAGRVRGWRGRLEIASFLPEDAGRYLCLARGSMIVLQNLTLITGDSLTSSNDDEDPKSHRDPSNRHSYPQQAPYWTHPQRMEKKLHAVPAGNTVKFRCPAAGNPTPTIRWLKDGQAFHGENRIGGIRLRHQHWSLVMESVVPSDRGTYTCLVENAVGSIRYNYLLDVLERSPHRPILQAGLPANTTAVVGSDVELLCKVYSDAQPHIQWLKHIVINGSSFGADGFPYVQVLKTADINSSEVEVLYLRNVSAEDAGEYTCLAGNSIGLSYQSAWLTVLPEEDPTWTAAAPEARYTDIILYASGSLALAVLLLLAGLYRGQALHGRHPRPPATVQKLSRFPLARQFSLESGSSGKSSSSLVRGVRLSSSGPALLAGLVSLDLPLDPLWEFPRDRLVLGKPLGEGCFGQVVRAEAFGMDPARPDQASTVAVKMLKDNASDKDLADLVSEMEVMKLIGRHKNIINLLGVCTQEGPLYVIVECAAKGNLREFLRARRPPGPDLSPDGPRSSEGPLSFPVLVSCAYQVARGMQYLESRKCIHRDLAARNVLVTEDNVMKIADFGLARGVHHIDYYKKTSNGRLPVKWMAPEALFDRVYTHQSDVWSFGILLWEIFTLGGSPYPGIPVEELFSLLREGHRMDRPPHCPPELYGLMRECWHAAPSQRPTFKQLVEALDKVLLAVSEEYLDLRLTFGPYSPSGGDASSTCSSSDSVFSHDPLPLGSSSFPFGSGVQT

[3] = biological target: Fibroblast growth factor receptor 2 (Homo sapiens, UniProt P21802); assay: Inhibition of FGFR2 (unknown origin) incubated for 10 mins followed by substrate addition measured after 60 mins by ADP-Glo luminescence assay
[4] = biological target: Fibroblast growth factor receptor 1 (Homo sapiens, UniProt P11362); assay: Inhibition of FGFR1 (unknown origin) incubated for 10 mins followed by substrate addition measured after 60 mins by ADP-Glo luminescence assay
[5] = biological target: Fibroblast growth factor receptor 3 (Homo sapiens, UniProt P22607); assay: Inhibition of FGFR3 (unknown origin) incubated for 10 mins followed by substrate addition measured after 60 mins by ADP-Glo luminescence assay
[6] = Solubility of the compound in PBS buffer of pH7.4 at 10 mM measured after 2 hrs by LC-MS/MS analysis; assay type: physicochemical; conditions: pH 7.4
[7] = Permeability of the compound at 10 uM preincubated in acceptor compartment for 16 hrs followed by 16 hrs incubation in donor compartment by PAMPA based LC-MS/MS analysis; assay type: ADME; conditions: time 32 hrs, read-out: permeability
[8] = Ionization constant, pKa of the compound in PBS buffer at pH 1.42 to 12.33 by electrochemical method; assay type: physicochemical
[9] = C0 in Sprague-Dawley rat measured at 2 mg/kg, iv for 0.083 to 24 hrs by LC-MS/MS analysis; assay type: ADME, organism-based; conditions: in vivo, time 0.083-24 hrs
[10] = Cmax in Sprague-Dawley rat measured at 2 mg/kg, iv for 0.083 to 24 hrs by LC-MS/MS analysis; assay type: ADME, organism-based; design: time upper 24 hrs, time lower 0.083 hrs, dose 2 mg/kg, route iv; conditions: in vivo
[11] = Half life in Sprague-Dawley rat measured at 2 mg/kg, iv for 0.083 to 24 hrs by LC-MS/MS analysis; assay type: ADME, organism-based; conditions: in vivo, time 0.083-24 hrs
[12] = Tmax in Sprague-Dawley rat measured at 2 mg/kg, iv for 0.083 to 24 hrs by LC-MS/MS analysis; assay type: ADME, organism-based; conditions: in vivo, time 0.083-24 hrs
[13] = AUC (0 to t) in Sprague-Dawley rat measured at 2 mg/kg, iv for 0.083 to 24 hrs by LC-MS/MS analysis; assay type: ADME, organism-based; design: dose 2 mg/kg, time upper 24 hrs, time lower 0.083 hrs, route iv; conditions: in vivo
[14] = AUC (0 to infinity) in Sprague-Dawley rat measured at 2 mg/kg, iv for 0.083 to 24 hrs by LC-MS/MS analysis; assay type: ADME, organism-based; design: time lower 0.083 hrs, dose 2 mg/kg, time upper 24 hrs, route iv; conditions: in vivo
[15] = MRT (0 to t) in Sprague-Dawley rat measured at 2 mg/kg, iv for 0.083 to 24 hrs by LC-MS/MS analysis; assay type: ADME, organism-based; conditions: in vivo, time 0.083-24 hrs
[16] = MRT (0 to infinity) in Sprague-Dawley rat measured at 2 mg/kg, iv for 0.083 to 24 hrs by LC-MS/MS analysis; assay type: ADME, organism-based; conditions: in vivo, time 0.083-24 hrs
[17] = Clearance in Sprague-Dawley rat measured at 2 mg/kg, iv for 0.083 to 24 hrs by LC-MS/MS analysis; assay type: ADME, organism-based; conditions: in vivo, time 0.083-24 hrs
[18] = Volume of distribution at steady state in Sprague-Dawley rat measured at 2 mg/kg, iv for 0.083 to 24 hrs by LC-MS/MS analysis; assay type: ADME, organism-based; conditions: in vivo, time 0.083-24 hrs, read-out: Vdss
[19] = Cmax in Sprague-Dawley rat measured at 10 mg/kg, po for 0.083 to 24 hrs by LC-MS/MS analysis; assay type: ADME, organism-based; design: time 0.083-24 hrs, dose 10 mg/kg, route po; conditions: in vivo
[20] = Half life in Sprague-Dawley rat measured at 10 mg/kg, po for 0.083 to 24 hrs by LC-MS/MS analysis; assay type: ADME, organism-based; conditions: in vivo, time 0.083-24 hrs
[21] = Tmax in Sprague-Dawley rat measured at 10 mg/kg, po for 0.083 to 24 hrs by LC-MS/MS analysis; assay type: ADME, organism-based; conditions: in vivo, time 0.083-24 hrs
[22] = AUC (0 to t) in Sprague-Dawley rat measured at 10 mg/kg, po for 0.083 to 24 hrs by LC-MS/MS analysis; assay type: ADME, organism-based; design: dose 10 mg/kg, time upper 24 hrs, time lower 0.083 hrs, route po; conditions: in vivo
[23] = AUC (0 to infinity) in Sprague-Dawley rat measured at 10 mg/kg, po for 0.083 to 24 hrs by LC-MS/MS analysis; assay type: ADME, organism-based; design: dose 10 mg/kg, time upper 24 hrs, time lower 0.083 hrs, route po; conditions: in vivo
[24] = MRT (0 to t) in Sprague-Dawley rat measured at 10 mg/kg, po for 0.083 to 24 hrs by LC-MS/MS analysis; assay type: ADME, organism-based; conditions: in vivo, time 0.083-24 hrs
[25] = MRT (0 to infinity) in Sprague-Dawley rat measured at 10 mg/kg, po for 0.083 to 24 hrs by LC-MS/MS analysis; assay type: ADME, organism-based; conditions: in vivo, time 0.083-24 hrs
[26] = Oral bioavailability in Sprague-Dawley rat measured at 10 mg/kg for 0.083 to 24 hrs by LC-MS/MS analysis; assay type: ADME, organism-based; conditions: in vivo, time 0.083-24 hrs
[27] = Microsomal stability in human liver microsomes assessed as half life preincubated for 10 mins followed by NADPH addition measured upto 60 mins by LC-MS/MS analysis; assay type: ADME, Microsome; conditions: time < 70 min
[28] = Microsomal stability in human liver microsomes assessed as intrinsic clearance preincubated for 10 mins followed by NADPH addition measured upto 60 mins by LC-MS/MS analysis; assay type: ADME, Microsome; conditions: time < 70 min, read-out: CLH

Sequence of Fibroblast growth factor receptor 1 (P11362 whole entry): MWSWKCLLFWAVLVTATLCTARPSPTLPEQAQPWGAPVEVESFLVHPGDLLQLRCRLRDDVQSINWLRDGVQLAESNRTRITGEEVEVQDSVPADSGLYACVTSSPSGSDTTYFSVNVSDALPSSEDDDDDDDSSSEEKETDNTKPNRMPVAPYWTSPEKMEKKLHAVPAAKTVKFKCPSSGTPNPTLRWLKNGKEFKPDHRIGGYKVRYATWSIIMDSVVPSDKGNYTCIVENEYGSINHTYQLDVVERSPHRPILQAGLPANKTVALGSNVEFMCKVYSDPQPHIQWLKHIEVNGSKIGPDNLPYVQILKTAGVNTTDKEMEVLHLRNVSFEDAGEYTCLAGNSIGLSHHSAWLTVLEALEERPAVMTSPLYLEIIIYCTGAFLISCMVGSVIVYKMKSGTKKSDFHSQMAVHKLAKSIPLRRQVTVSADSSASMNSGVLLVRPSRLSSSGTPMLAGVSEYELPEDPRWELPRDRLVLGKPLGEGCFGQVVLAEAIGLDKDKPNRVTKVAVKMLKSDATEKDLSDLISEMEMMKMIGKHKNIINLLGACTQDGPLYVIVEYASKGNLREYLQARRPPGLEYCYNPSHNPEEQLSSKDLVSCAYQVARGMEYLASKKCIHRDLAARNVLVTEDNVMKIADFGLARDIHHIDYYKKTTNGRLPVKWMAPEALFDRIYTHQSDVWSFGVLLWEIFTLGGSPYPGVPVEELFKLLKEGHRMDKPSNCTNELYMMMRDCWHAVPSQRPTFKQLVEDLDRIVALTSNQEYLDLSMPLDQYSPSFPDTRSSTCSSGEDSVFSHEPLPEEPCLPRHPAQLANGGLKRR
Sequence of Fibroblast growth factor receptor 2 (P21802 whole entry): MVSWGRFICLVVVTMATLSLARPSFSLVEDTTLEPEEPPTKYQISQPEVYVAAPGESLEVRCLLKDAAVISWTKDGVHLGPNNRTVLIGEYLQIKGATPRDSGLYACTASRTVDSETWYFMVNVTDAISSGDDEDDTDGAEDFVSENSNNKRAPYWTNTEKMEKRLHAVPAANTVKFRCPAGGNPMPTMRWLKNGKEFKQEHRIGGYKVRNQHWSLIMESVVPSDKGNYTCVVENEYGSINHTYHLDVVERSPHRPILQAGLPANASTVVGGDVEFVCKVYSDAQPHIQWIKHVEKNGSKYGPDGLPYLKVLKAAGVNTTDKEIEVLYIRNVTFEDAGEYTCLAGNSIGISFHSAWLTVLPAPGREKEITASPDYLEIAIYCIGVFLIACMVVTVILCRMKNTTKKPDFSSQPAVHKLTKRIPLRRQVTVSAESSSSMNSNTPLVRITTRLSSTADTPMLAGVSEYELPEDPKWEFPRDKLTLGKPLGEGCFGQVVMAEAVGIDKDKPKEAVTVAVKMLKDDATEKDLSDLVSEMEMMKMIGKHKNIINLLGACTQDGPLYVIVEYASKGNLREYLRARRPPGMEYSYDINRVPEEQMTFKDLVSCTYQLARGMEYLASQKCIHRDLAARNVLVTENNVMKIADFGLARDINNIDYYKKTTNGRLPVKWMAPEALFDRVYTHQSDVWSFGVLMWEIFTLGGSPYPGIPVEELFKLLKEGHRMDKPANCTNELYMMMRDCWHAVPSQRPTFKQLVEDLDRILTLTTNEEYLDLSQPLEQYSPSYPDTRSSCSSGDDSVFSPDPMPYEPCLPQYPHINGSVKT
Sequence of Fibroblast growth factor receptor 3 (P22607 whole entry): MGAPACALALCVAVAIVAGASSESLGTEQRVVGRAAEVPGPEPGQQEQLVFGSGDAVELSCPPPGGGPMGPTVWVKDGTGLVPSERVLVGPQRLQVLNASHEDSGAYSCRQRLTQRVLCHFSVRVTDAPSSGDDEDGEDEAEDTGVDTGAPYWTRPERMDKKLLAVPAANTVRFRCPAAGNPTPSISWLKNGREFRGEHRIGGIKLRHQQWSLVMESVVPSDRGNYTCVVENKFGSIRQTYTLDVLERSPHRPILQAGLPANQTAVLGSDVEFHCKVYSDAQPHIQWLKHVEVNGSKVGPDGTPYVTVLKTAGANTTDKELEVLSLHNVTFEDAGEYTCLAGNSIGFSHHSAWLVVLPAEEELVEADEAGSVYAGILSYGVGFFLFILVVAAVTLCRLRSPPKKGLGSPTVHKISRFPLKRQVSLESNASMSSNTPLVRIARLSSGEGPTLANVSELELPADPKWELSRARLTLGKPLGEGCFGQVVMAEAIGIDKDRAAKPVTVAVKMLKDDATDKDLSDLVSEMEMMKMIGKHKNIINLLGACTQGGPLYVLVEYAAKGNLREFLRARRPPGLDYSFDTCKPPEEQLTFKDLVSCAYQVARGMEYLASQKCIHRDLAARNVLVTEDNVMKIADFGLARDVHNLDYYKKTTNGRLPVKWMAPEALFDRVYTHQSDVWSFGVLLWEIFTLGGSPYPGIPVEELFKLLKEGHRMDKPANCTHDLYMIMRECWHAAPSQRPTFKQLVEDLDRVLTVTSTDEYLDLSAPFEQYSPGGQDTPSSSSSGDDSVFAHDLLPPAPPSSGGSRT

COc1cc2nccc(Oc3ccc(NC(=O)NC4CC4)c(Cl)c3)c2cc1C1CCN(C(=O)C(F)(F)F)CC1
inhibition [1]: 25.6%
IC50 (Huh-7): 1410 nM
IC50 (Hep 3B2): > 10000 nM

[2H]C([2H])([2H])Oc1cc2nccc(Oc3ccc(NC(=O)NC4CC4)c(Cl)c3)c2cc1C1CCN(C(=O)C=C)CC1
IC50 [2]: 7.04 nM
IC50 (Huh-7): 17.8 nM
IC50 (Hep 3B2): 72.6 nM

C=CC(=O)N1CCC(c2cc3c(Oc4ccc(NC(=O)NC5CC5)c(Cl)c4)ccnc3cc2OC)C(C)C1 (stereo unspecified)
IC50 [2]: 5.73 nM
IC50 (Huh-7): 16.9 nM
IC50 (Hep 3B2): 13.3 nM

C=CC(=O)N1CCC(c2cc3c(Nc4ccc(OCc5ccccn5)c(Cl)c4)ccnc3cc2OC)CC1
inhibition [1]: 17.1%
IC50 (Huh-7): > 10000 nM
IC50 (Hep 3B2): 4020 nM

C=CC(=O)N1CCC(c2cc3c(Oc4ccc5c(C(=O)NC)c(C)oc5c4)ccnc3cc2OC)CC1
inhibition [1]: 40.7%
IC50 (Huh-7): 32.9 nM
IC50 (Hep 3B2): 41 nM

C=CC(=O)N1CCC(c2cc3c(Oc4ccc(NC(=O)NC5CC5)c(Cl)c4)ccnc3cc2OCC(F)(F)F)CC1
IC50 [2]: 14.5 nM
IC50 (Huh-7): 15.5 nM
IC50 (Hep 3B2): 30.2 nM

C=CC(=O)N1CC=C(c2cc3c(Oc4ccc(NC(=O)NC5CC5)c(Cl)c4)ccnc3cc2OC)C1
IC50 [2]: 2.49 nM
IC50 (Huh-7): 1520 nM
IC50 (Hep 3B2): 438 nM

C=CC(=O)N1CCC(c2cc3c(Oc4ccc(NC(=O)NC5CC5)c(Cl)c4)c(C#N)cnc3cc2OC)CC1
inhibition [1]: 15%
IC50 (Huh-7): 8830 nM
IC50 (Hep 3B2): > 10000 nM

C=CC(=O)N1CCC(c2cc3c(Oc4ccc(NC(=O)Cc5ccccc5)cc4F)ccnc3cc2OC)CC1
inhibition [1]: 1.1%
IC50 (Huh-7): 2210 nM
IC50 (Hep 3B2): 1350 nM

C=CC(=O)N1CCC(c2cc3c(Oc4ccc(NC(=O)NC5CC5)c(Cl)c4)ccnc3cc2OC(C)C)CC1
IC50 [2]: 17 nM
IC50 (Huh-7): 37.8 nM
IC50 (Hep 3B2): 63.6 nM

C=CC(=O)N1CCC(c2cc3c(Oc4ccc(NC(=O)NC5CC5)c(Cl)c4)ccnc3cc2OCC)CC1
IC50 [3]: 5.2 nM
IC50 [4]: 4.5 nM
IC50 [2]: 230 nM
IC50 (Huh-7): 9.4 nM
IC50 (Hep 3B2): 17.4 nM
IC50 [5]: 5.5 nM
solubility at 2 h, 10000 µM [6]: < 0.073 µM
Papp at 16 h, 10 µM [7]: 1.11 ×10⁻⁶ cm/s
pKa [8]: 5.28
C0 [9]: 3090 ng/mL
Cmax [10]: 1700 ng/mL
half-life [11]: 14.4 min
Tmax [12]: 4.8 min
AUC(0-t) [13]: 505 ng·h/mL
AUC(0-inf) [14]: 506 ng·h/mL
MRT last [15]: 9.6 min
MRT [16]: 10.2 min
clearance [17]: 66 mL/min/kg
Vd [18]: 0.659 L/kg
Cmax [19]: 1680 ng/mL
half-life [20]: 78 min
Tmax [21]: 15 min
AUC(0-t) [22]: 1100 ng·h/mL
AUC(0-inf) [23]: 1120 ng·h/mL
MRT last [24]: 79.8 min
MRT [25]: 85.2 min
bioavailability [26]: 43.7%

COc1cc2nccc(Oc3ccc(NC(=O)NC4CC4)c(Cl)c3)c2cc1C1CCN(C(=O)/C=C/CN(C)C)CC1
IC50 [2]: 4.6 nM
IC50 (Huh-7): 26.1 nM
IC50 (Hep 3B2): 30 nM

C=CC(=O)N1CCC(c2cc3c(Oc4ccc(NC(=O)NC5CC5)c(OCC)c4)ccnc3cc2OC)CC1
inhibition [1]: 10.7%
IC50 (Huh-7): 356 nM
IC50 (Hep 3B2): 509 nM

COc1cc2nccc(Oc3ccc(NC(=O)NC4CC4)c(Cl)c3)c2cc1C(N)=O [LENVATINIB]
IC50 [3]: 11 nM
IC50 [4]: 66 nM
IC50 (Huh-7): 851 nM
IC50 (Hep 3B2): 696 nM
half-life [27]: 22.4 min
microsomal CLint [28]: 74.1 µL/min/mg
Papp at 16 h, 10 µM [7]: 9.27 ×10⁻⁶ cm/s
pKa [8]: 5.27

Reference: ChEMBL document CHEMBL5346943, “Discovery and Structural Optimization of Novel Quinolone Derivatives as Potent Irreversible Pan-Fibroblast Growth Factor Receptor Inhibitors for Treating Solid Tumors” (J Med Chem, 2023)
